Measurements reported in patent US20070160691A1, “Pharmaceutical composition for treating and preventing cancer comprising cinnamoni cortex extract and zizyphi fructus extract” (KOREA RESEARCH INSTITUTE OF BIOSCIENCE AND BIOTECH, priority 2003, published 2007).

Key:
[1] = system: MDA-MB-231 breast cancer cells; test: DNA fragmentation (apoptosis induction), agarose gel electrophoresis; assay type: cell-based; conditions: MDA-MB-231 cells, 10 μM and 30 μM HCA, 48 hrs, compared to DMSO; FIG. 1
Experimental: (§1) MDA-MB-231 breast cancer cells and SW620 colon cancer cells were seeded onto 100-mm culture dishes at densities of 1×10^6 and 2×10^6 cells, respectively. After 18 hrs, the cells were treated with 10 μM and 30 μM of 2′-hydroxycinnamaldehyde(HCA) and further cultured for 48 hrs.
(§2) Then, to analyze DNA cleavage by the HCA treatment, the cells were lysed using RIPA buffer (50 mM Tris-HCl, pH 7.4, 150 mM NaCl, 5 mM EDTA, 1% NP-40, 1 mM sodium vanadate, 0.5% sodium deoxycholate, and 0.05% sodium deoxysulfate). The cell lysates were centrifuged at 13,000 rpm. The supernatants were subjected to phenol extraction to remove proteins, and the nucleic acid layers were recovered. Potassium acetate was added to each nucleic acid layer in a final concentration of 50 mM, and an equal volume of isopropyl alcohol was added thereto to precipitate nucleic acids. The precipitated nucleic acids were washed with 80% ethanol and dried. The dried nucleic acids were dissolved in 30 μl of TE buffer, and treated with Dnase-free RNase at 37° C. for 1 hr to remove RNA.
(§3) The resulting DNA samples were electrophoresed on a 1.5% agarose gel to investigate DNA fragmentation by HCA.

SW620 colon cancer cells = test: as above; assay type: cell-based, human; conditions: 10 μM and 30 μM HCA, 48 hrs, compared to DMSO, FIG. 1
Experimental: as §1, §2, §3

[2] = system: PARP (poly(ADP-ribose) polymerase) in MDA-MB-231 breast cancer cells; test: PARP cleavage by Western blotting; assay type: cell-based; conditions: MDA-MB-231 cells, 10 μM and 30 μM HCA, 48 hrs, compared to DMSO; FIG. 2
Experimental: (§4) MDA-MB-231 breast cancer cells and SW620 colon cancer cells were seeded onto 100-mm culture dishes at densities of 1×10^6 and 2×10^6 cells, respectively. After 18 hrs, the cells were treated with 10 μM and 30 μM of HCA and further cultured for 48 hrs.
(§5) Then, to analyze PARP (poly(ADP-ribose) polymerase) cleavage by the HCA treatment, the cells were lysed using RIPA buffer (50 mM Tris-HCl, pH 7.4, 150 mM NaCl, 5 mM EDTA, 1% NP-40, 1 mM sodium vanadate, 0.5% sodium deoxycholate, and 0.05% sodium deoxysulfate). The cell lysates were centrifuged at 13,000 rpm and the supernatants were recovered. In the supernatants, protein concentrations were determined using a Bradford reagent (Bio-Rad Protein Assay, USA). Protein samples of 30 μg were separated on a 7.5% SDS-PAGE (SDS-polyacrylamide gel electrophoresis) gel. Proteins were then electro-transferred onto a PVDF membrane. The blot was blocked using 5% skim milk in TBST (50 mM Tris-HCl, pH 7.6, 150 mM NaCl, 0.1% Tween 20). Intracellular PARP was detected using a PARP-specific antibody (Cell signaling Technology, USA), a HRP (horse radish peroxidase)-conjugated secondary antibody, and a chemiluminescence POD reagent (Roche, Germany).

[3] = system: PARP (poly(ADP-ribose) polymerase) in SW620 colon cancer cells; test: PARP cleavage by Western blotting; assay type: cell-based, human; conditions: 10 μM and 30 μM HCA, 48 hrs, compared to DMSO, FIG. 2
Experimental: as §4, §5

[4] = system: MDA-MB-231 breast cancer cells; test: Cancer cell migration assay in Boyden chamber; assay type: cell-based; conditions: 6 hrs, FIG. 3
Experimental: Cultured MDA-MB-231 breast cancer cells were detached from culture dishes using a trypsin/EDTA solution (Gifco, USA), neutralized with trypsin inhibitor (0.5 mg/ml, Sigma, USA), and washed twice with culture medium. The cells were then counted using a hematocytometer. Cell migration was assayed using a Boyden chamber. HCA was added to a lower compartment of the Boyden chamber through holes with concentrations of 0 μM, 1 μM, 5 μM and 10 μM. After the lower compartment of the Boyden chamber was covered with a polycarbonate membrane (8 μm pore, Neuro Probe, Inc, USA), an upper compartment of the Boyden chamber was assembled with the lower compartment, and […] MDA-MB-231 cells were inoculated in the upper compartment through holes. After the Boyden chamber was incubated in an incubator for 6 hrs, the membrane was immersed in methanol to fix the cells. Then, the membrane was air-dried, stained with a 10% Girkmsa staining solution (Sigma, USA)for 1 hr, and destained with water for 10 sec. Herein, after non-migratedcells (an upper side of the membrane) were removed using a swab, migrated cells (a lower side of the membrane) were counted under a microscope.

O=C/C=C/c1ccccc1O [HCA, 2′-hydroxycinnamaldehyde]
DNA fragmentation by HCA [1]: fragmentation of chromosonal DNA into uniform DNA fragments | DNA fragmentation by HCA (SW620 colon cancer cells): fragmentation of chromosonal DNA into uniform DNA fragments | PARP cleavage [2]: a decrease in normal full-length PARP (116 kDa) and an increase in cleaved PARP (89 kDa) | PARP cleavage [3]: a decrease in normal full-length PARP (116 kDa) and an increase in cleaved PARP (89 kDa) | inhibition at 30 µM ([4]; Homo sapiens, MDA-MB-231, at 30 μM): > 50% | inhibition of cell migration ([4]; at 5 μM): inhibited cell migration
